From patent EP4667458A1 (Kanaph Therapeutics Inc., priority 2023, dated 2024)

molecular target: T1, KRAS^G12C::SOS1 (Homo sapiens, UniProt Q07889); assay: KRAS G12C::SOS1 protein-protein interaction (PPI) inhibition assay (HTRF binding kit)
T1 sequence (Q07889 1-1333): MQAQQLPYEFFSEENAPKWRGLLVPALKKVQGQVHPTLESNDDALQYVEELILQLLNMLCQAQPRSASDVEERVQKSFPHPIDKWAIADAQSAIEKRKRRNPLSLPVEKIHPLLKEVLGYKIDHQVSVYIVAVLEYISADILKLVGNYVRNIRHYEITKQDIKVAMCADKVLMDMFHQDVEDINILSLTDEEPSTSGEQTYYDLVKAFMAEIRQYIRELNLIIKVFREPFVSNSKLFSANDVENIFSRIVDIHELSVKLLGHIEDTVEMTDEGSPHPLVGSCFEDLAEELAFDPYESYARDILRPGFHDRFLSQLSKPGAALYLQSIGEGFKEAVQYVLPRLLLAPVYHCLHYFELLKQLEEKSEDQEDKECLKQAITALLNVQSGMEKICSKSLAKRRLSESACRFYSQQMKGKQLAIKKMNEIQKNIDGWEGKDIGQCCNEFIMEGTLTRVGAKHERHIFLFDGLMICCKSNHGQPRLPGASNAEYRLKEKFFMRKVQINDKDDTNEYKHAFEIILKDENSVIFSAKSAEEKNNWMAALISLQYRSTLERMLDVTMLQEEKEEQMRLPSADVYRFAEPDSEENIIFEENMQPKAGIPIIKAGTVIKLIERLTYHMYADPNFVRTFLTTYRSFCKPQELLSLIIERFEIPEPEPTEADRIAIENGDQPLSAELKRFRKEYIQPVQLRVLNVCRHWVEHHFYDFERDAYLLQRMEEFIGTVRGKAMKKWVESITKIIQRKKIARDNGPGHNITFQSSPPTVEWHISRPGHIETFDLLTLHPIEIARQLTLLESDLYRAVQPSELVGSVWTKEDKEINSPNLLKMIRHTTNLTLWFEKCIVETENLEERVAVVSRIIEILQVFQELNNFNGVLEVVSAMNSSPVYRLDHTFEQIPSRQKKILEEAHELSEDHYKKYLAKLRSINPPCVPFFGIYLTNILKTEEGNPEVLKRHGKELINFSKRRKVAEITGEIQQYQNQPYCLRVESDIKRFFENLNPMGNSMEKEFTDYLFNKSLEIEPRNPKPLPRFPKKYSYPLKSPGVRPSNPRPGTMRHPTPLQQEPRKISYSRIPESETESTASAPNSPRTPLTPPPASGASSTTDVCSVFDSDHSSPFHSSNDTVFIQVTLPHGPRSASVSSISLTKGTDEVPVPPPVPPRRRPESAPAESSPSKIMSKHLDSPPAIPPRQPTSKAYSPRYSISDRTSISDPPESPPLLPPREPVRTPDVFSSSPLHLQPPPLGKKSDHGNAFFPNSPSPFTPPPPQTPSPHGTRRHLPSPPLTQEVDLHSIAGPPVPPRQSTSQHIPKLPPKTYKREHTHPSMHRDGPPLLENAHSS

SMILES	IC50 [µM]
C[C@@H](NC(=O)c1ccc(=O)n(-c2ccccc2F)n1)c1cccc(Oc2cccnc2)c1 [Example 305, 1-(2-fluorophenyl)-6-oxo-N-[(1R)-1-[3-(3-pyridyloxy)phenyl]ethyl]pyridazine-3-carboxamide]	> 10
CNCc1cccc(F)c1-c1ccc([C@@H](C)NC(=O)c2ccc(=O)n(-c3cccnc3F)n2)s1 [Example 293, N-[(1R)-1-[5-[2-fluoro-6-(methylaminomethyl)phenyl]-2-thienyl]ethyl]-1-(2-fluoro-3-pyridyl)-6-oxo-pyridazine-3-carboxamide]	< 1
CNCc1ccc(F)cc1-c1ccc([C@@H](C)NC(=O)c2ccc(=O)n(-c3cccc(C(=O)N(C)C)c3F)n2)s1 [Example 297, 1-[3-(dimethylcarbamoyl)-2-fluoro-phenyl]-N-[(1R)-1-[5-[5-fluoro-2-(methylaminomethyl)phenyl]-2-thienyl]ethyl]-6-oxo-pyridazine-3-carboxamide]	< 1
COc1cc(-n2nc(C(=O)N[C@H](C)c3cc(N)cc(C(F)(F)F)c3)ccc2=O)ccn1 [Example 196, N-[(1R)-1-[3-amino-5-(trifluoromethyl)phenyl]ethyl]-1-(2-methoxy-4-pyridyl)-6-oxo-pyridazine-3-carboxamide]	< 1
C[C@@H](NC(=O)c1ccc(=O)n(-c2cccc(-c3cncs3)c2)n1)c1cccc(C(F)(F)CO)c1F [Example 339, N-[(1R)-1-[3-(1,1-difluoro-2-hydroxy-ethyl)-2-fluorophenyl]ethyl]-6-oxo-1-(3-thiazol-5-ylphenyl)pyridazine-3-carboxamide]	< 1
C[C@@H](NC(=O)c1ccc(=O)n(-c2ccc3cnn(C)c3c2)n1)c1cc(N)cc(C(F)(F)F)c1 [Example 236, N-[(1R)-1-[3-amino-5-(trifluoromethyl)phenyl]ethyl]-1-(1-methyl-1H-indazol-6-yl)-6-oxo-1,6-dihydropyridazine-3-carboxamide]	< 1
CNCc1c(F)cccc1-c1ccc([C@@H](C)NC(=O)c2ccc(=O)n(-c3cccnc3F)n2)s1 [Example 409]	< 1
C[C@@H](NC(=O)c1ccc(=O)n(-c2ccccc2F)n1)c1cc(N)cc(C(F)F)c1 [Example 375, N-[(1R)-1-[3-amino-5-(difluoromethyl)phenyl]ethyl]-1-(2-fluorophenyl)-6-oxo-pyridazine-3-carboxamide]	< 1
C[C@@H](NC(=O)c1nn(-c2cnn(C)c2)c(=O)c2ccsc12)c1cc(N)cc(C(F)(F)F)c1 [Example 316, N-[(1R)-1-[3-amino-5-(trifluoromethyl)phenyl]ethyl]-5-(1-methylpyrazol-4-yl)-4-oxo-thieno[2,3-d]pyridazine-7-carboxamide]	< 1
C[C@@H](NC(=O)c1ccc(=O)n(-c2cccc(C(=O)N3CCCC3)c2F)n1)c1cc(N)cc(C(F)(F)F)c1 [Example 230]	< 1
C[C@@H](NC(=O)c1ccc(=O)n(-c2cc(F)ccc2F)n1)c1cccc(C(F)(F)CO)c1F [Example 356, N-[(1R)-1-[3-(1,1-difluoro-2-hydroxy-ethyl)-2-fluoro-phenyl]ethyl]-1-(2,5-difluorophenyl)-6-oxo-pyridazine-3-carboxamide]	< 1
C[C@@H](NC(=O)c1ccc(=O)n(-c2cccc(S(C)(=O)=O)c2)c1)c1cc(N)cc(C(F)(F)F)c1 [Example 167, N-[(1R)-1-[3-amino-5-(trifluoromethyl)phenyl]ethyl]-1-(3-methylsulfonylphenyl)-6-oxo-pyridine-3-carboxamide]	< 1
C[C@@H](NC(=O)c1ccc(=O)n(-c2ccccc2OC(F)F)n1)c1cc(N)cc(C(F)(F)F)c1 [Example 247, N-[(1R)-1-[3-amino-5-(trifluoromethyl)phenyl]ethyl]-1-[2-(difluoromethoxy)phenyl]-6-oxo-pyridazine-3-carboxamide]	< 1
C[C@@H](NC(=O)c1ccc(=O)n(-c2cccc(C(N)=O)c2)n1)c1cc(N)cc(C(F)(F)F)c1 [Example 252, N-[(1R)-1-[3-amino-5-(trifluoromethyl)phenyl]ethyl]-1-(3-carbamoylphenyl)-6-oxo-pyridazine-3-carboxamide]	< 1
